Results published in patent US6943186B2, “Methods of treating sepsis” (Yung Shin Pharmaceutical Ind. Co., Ltd., priority 2002, dated 2005).
Values joined by “and” are separate entries in the source; they are usually repeats but may differ in a detail not shown here. Equal entries are not always repeated. “Also recorded” adds a separate entry of the source.

Tests used:
Bcl-2 = assay: Western blot of Bcl-2 levels; type: cell-based, rat
Procedure: (§1) Western Blot Analysis After the exposure of cells to the indicated agents for four (for Bcl-2) or six (for cytochrome c) hours, cells were washed twice with ice-cold PBS and reaction was terminated by the addition of 100 μL ice-cold lysis buffer (10 mmol/L Tris-HCl, pH 7.4, 150 mmol/L NaCl, 1 mmol/L EGTA, 0.5 mmol/L phenylmethylsulfonyl fluoride (PMSF), 10 μg/mL aprotinin, 10 μg/mL leupeptin, and 1% Triton X-100). For the detection of phosphorylated Akt, 1 mmol/L Na3VO4, 1 mmol/L NaF, 50 mmol/L tetrasodium pyrophosphate, 10 nmol/L okadaic acid, 0.25% sodium deoxycholate were included in the lysis buffer. Protein content was determined by the Bio-Rad protein assay (Bio-Rad Laboratories, CA, USA). For Western blot analysis, cell lysates (25 μg/lane) were electrophoresized on 10-15% SDS-polyacrylamide gels, and transferred to a nitrocellulose membrane. The membranes were probed with anti-Bcl-2 or anti-α-tubulin monoclonal antibody, or anti-phosphorylated Akt polyclonal antibody. The transferred membranes were developed with a secondary anti-mouse or anti-rabbit antibody as we previously described (Guh et al. (1998) Eur. J. Pharmacol. 359: 281-284). Detection of signal was performed with an enhanced chemiluminescence detection kit (ECL; Amersham International, Little Chalfont, U.K.).

cyclooxygenase = conditions: Ko et al. (1994) Blood 84: 4226-4233; cited from earlier work
[1] = tested on: LPS-induced septic death in mouse model; assay: LPS-induced endotoxic shock (septic death) and lung histology; type: in vivo, mice
Procedure: Induction of Endotoxic Shock and Histological Examination In these experiments, mice (25-30 g, ICR strain) were injected intraperitoneally with 60 mg/kg of LPS (dissolved in PBS), and Compound 3 (suspended in carboxymethyl cellulose) was orally administered after the injection of LPS for 2 and 6 hours. The survival rate was monitored every 3 to 6 hours after LPS injection. For histological examination, the lung tissues were put into the 4% paraformaldehyde and embedded in paraffin. The embedded tissues were sectioned at 6-μm thick, stained with hematoxylin-eosin, and analyzed using a microscopy.

[2] = Free radical-scavenging activity with 1,1-diphenyl-2-picrylhydrazyl; conditions: stable radical 1,1-diphenyl-2-picrylhydrazyl; data not shown
[3] = Reduction of cytochrome c by superoxide anion (xanthine/xanthine oxidase); type: biochemical; conditions: xanthine/xanthine oxidase system; control 42.0±2.1; P=0.4, n=4
phosphorylated Akt = assay: Western blot of phosphorylated Akt; type: cell-based, rat
Procedure: as §1

[4] = tested on: murine macrophage RAW 264.7 cells; assay: LPS-evoked NO formation; type: cell-based; conditions: RAW 264.7, LPS 1 μg/mL, 24-hour; control 68.8±13.4; P=0.43, n=4
NR8383 macrophages = assay: LPS/interferon γ-induced tumor necrosis factor-α release; type: cell-based; conditions: control 15.5±1.3, P=0.13, n=4
cytochrome c = assay: Detection of cytochrome c release; type: cell-based, rat
Procedure: Detection of Cytochrome c Release Reaction Cells were trypsinized and centrifuged at 800×g for 10 minutes. Then, the cell pellet was re-suspended in 50 μL of extraction buffer containing 20 mmol/L HEPES, pH 7.5, 10 mmol/L KCl, 1.5 mmol/L MgCl2, 1 mmol/L EDTA, 1 mmol/L EGTA, 1 mmol/L dithithretol, 1 mmol/L PMSF) and incubated for 3 minutes on ice. Cells were managed with 30 strokes and centrifuged at 15,000×g for 15 minutes at 4° C. Aliquots of 20 μg protein were resolved on 15% SDS-polyacrylamide gel and then blotted to PVDF membranes. Membranes were incubated with anti-cytochrome c monoclonal antibody. Then, membranes were incubated with anti-mouse IgG and the expression of cytochrome c was detected as described previously.
Western Blot Analysis After the exposure of cells to the indicated agents for four (for Bcl-2) or six (for cytochrome c) hours, cells were washed twice with ice-cold PBS and reaction was terminated by the addition of 100 μL ice-cold lysis buffer (10 mmol/L Tris-HCl, pH 7.4, 150 mmol/L NaCl, 1 mmol/L EGTA, 0.5 mmol/L phenylmethylsulfonyl fluoride (PMSF), 10 μg/mL aprotinin, 10 μg/mL leupeptin, and 1% Triton X-100). […] Protein content was determined by the Bio-Rad protein assay (Bio-Rad Laboratories, CA, USA). […]

caspase-3 = assay: Determination of caspase-3 activity in RASMCs; type: cell-based, rat
Procedure: Determination of Caspase-3 Activity
The Caspase-3 activity was assayed with the Caspase-3 colorimetric assay kit (R&D Systems, Inc., Minneapolis, Minn.). After the treatment of cells with indicated agents for ten hours, cells were washed twice with ice-cold PBS, trypsinized, and centrifuged (800×g for 5 minutes), and the cell pellet was re-suspended in pre-cooled lysis buffer obtained from the Caspase-3 colorimetric assay kit. After 10 minutes of incubation on ice, cell homogenates were centrifuged at 10,000×g for 1 minute and supernatants were removed for the determination of caspase-3 activity. Proteolytic reactions were performed in a total volume of 100 μL reaction buffer containing 50 μL of cytosolic extracts and 5 μL DEVD-pNA obtained from the kit. The reaction mixture was incubated at 37° C. for one to two hours and the formation of p-nitroaniline was then measured at 405 nm by an ELISA reader.

[5] = tested on: intracellular cGMP levels; assay: Assay of cGMP contents; type: cell-based, rat
Procedure: (§2) Cell Culture Rat aortic smooth muscle cells (RASMCs) were prepared from Sprague-Dawley rats and cultured in Dulbecco's modified Eagle's medium (DMEM) supplemented with 10% FBS, 100 units/mL penicillin and 100 μg/mL streptomycin (Gibco, Grand Island, N.Y.) as previously described (Yang et al. (2001) Br J Pharmacol. 132: 1531-1541). Cells within six generations were used in the present study. Cells were identified being the smooth muscle cells by immunostaining with monoclonal antibody specific for smooth muscle α-actin.
Assay of cGMP Contents At confluence, monolayer cells were incubated with indicated agents for 10 minutes. Then cells were washed twice with ice-cold PBS and lysed with 0.5 mL NaOH (0.1 mol/L). 0.5 mL HCl (0.1 mol/L) was then added to neutralize the assay solution. After the centrifugation (3,000×g for 3 minutes), the supernatant was used for the detection of cGMP content by using a cGMP ELISA kit.

[6] = tested on: rat aortic smooth muscle cells; assay: Cytotoxicity (MTT) assay and TUNEL labeling, SNP-induced apoptosis in RASMCs; type: cell-based; conditions: for Cell survival (%) / effect on SNP-induced apoptosis / effect on Compound 3-induced cell proliferation / effect on Compound 3-mediated anti-apoptotic action: RASMCs; for effect on SNP-induced apoptosis: SNP 1 mmol/L, Compound 3 30 μmol/L; for effect on Compound 3-mediated anti-apoptotic action: inhibitor added to Compound 3 + SNP
Procedure: as §2
Cytotoxicity Assay The cytotoxicity assay was carried out using the MTT assay method. MTT (3-(4,5-dimethylthiazol-2-yl)-2,5-diphenyltetrazolium bromide, Sigma Chemical, St. Louis, Mo.) was dissolved in phosphate-buffered saline (PBS) at a concentration of 5 mg/mL and filtered (Millipore, Bedford, Mass.). From this stock solution, 10 μL/100 μL of medium was added to each well of a plate, and the plate was gently shaken and incubated at 37° C. for 2 hours. […] After the loading of MTT, the medium was replaced with 100 μL dimethylsulphoxide (DMSO). The extent of reduction of MTT to formazan within cells was quantified by the measurement of OD550 with an enzyme-linked immunosorbent assay (ELISA) reader.
In Situ Labeling of Apoptotic Cells In situ detection of apoptotic cells was carried out by using a terminal deoxynucleotidyl transferase (TdT) dUTP nick-end labeling (TUNEL) method with an apoptotic detection kit (Promega, Madison, Wis., USA) as described previously (Guh et al. (1998) Mol Pharmacol. 53: 467-474). The TUNEL method identifies apoptotic cells in situ by using TdT to transfer biotin-dUTP to the free 3′-OH of cleaved DNA. The biotin-labeled cleavage sites then were visualized by reaction with fluorescein conjugated avidin (avidin-fluorescein isothiocyanate). Photomicrographs were obtained with a fluorescence microscope (Nikon).

[7] = combination of SNP and Compound 3
[8] = single agent alone, mean ± SEM, control 100
[9] = inhibitor added to Compound 3 + SNP

OCc1ccc(-c2nn(Cc3ccccc3)c3ccccc23)o1 [Compound 3]
effect on SNP-induced Bcl-2 down-regulation (Bcl-2; SNP 1 mmol/L): completely prevented
inhibition on cyclooxygenase activity (cyclooxygenase): no inhibition
condition of survived mice after LPS initiation ([1]; LPS 60 mg/kg i.p., Compound 3 10 mg/kg oral post-treatment): remained vigorous more than one month
survival rate of mice ([1]; LPS 60 mg/kg i.p., Compound 3 10 mg/kg oral two hours after LPS): significantly increased
histological examination of lung tissues ([1]; post-treated Compound 3 group, LPS mice): intact blood vessels without the infiltration of blood cells
free radical-scavenging activity [2]: little free radical-scavenging activity
reduction of cytochrome c by superoxide anion [3]: 40±0.6%
phosphorylated Akt expression (phosphorylated Akt; Compound 3 alone): profound increase
phosphorylated Akt expression (phosphorylated Akt; Compound 3 in combination with SNP): profound increase
NO formation (nitrite) [4]: 53.4 ± 12.3 µmol/L
LPS/interferon γ-induced tumor necrosis factor-α release (NR8383 macrophages): 18.5 ± 1.2 ng/mL
effect on SNP-induced cytochrome c release (cytochrome c; SNP 1 mmol/L): completely prevented
effect on SNP-induced caspase-3 activity (caspase-3; SNP 1 mmol/L, RASMCs): completely inhibited
cGMP synthesis ([5]; Compound 3 alone, basal 2.3±0.3, 10 minutes): 4.2±0.8 fmol/well
cGMP formation [5, 7]: 252.8±81.8 fmol/well
increase of cGMP formation (folds) [5, 7]: more than sixty folds
increase in cell number ([6]; Compound 3 alone, not statistically significant): 11%
Cell survival (%) ([6]; ODQ + Compound 3): 96.1 ± 4.2%
Cell survival (%) ([6]; ODQ + SNP + Compound 3): 69.6 ± 4.0 %
effect on SNP-induced apoptosis [6]: completely abolished
Cell survival (%) ([6]; SNP + Compound 3 (SNP 1 mmol/L, Compound 3 30 μmol/L)): 100.6±5.5% and 102.9 ± 8.1^+ %
ODQ-irresponsible action in Compound 3-mediated effect ([6]; remaining anti-apoptotic effect in presence of ODQ): about 20%
Cell survival (%) [6, 8]: 111.3 ± 8.8%

O=c1onc2cnc3ccccc3n12 [ODQ, reference compound]
effect on preventive action of Compound 3 (Bcl-2 down-regulation) (Bcl-2; [9]): fully reversed
effect on Compound 3-induced phosphorylated Akt expression (phosphorylated Akt; Compound 3 alone or with SNP): profoundly inhibited
effect on preventive action of Compound 3 (cytochrome c release) (cytochrome c; [9]): fully reversed
effect on Compound 3-mediated inhibition of caspase-3 activity (caspase-3; [9]): partially but significantly reversed
cGMP level ([5]; ODQ + Compound 3 alone): the basal value
cGMP level ([5]; ODQ + combination of SNP and Compound 3): ~21 fmol/well
effect on Compound 3-induced cell proliferation [6]: completely inhibited
effect on SNP-induced apoptosis [6]: no influence
effect on Compound 3-mediated anti-apoptotic action [6]: significantly reversed
Cell survival (%) [6, 8]: 99.5 ± 5.7%

COc1cccc(-c2cc(=O)c3ccccc3o2)c1N [PD98059]
effect on Compound 3-induced cell proliferation [6]: completely inhibited
effect on Compound 3-mediated anti-apoptotic action [6]: significantly reversed; also recorded: not PD98059 reversed

Cn1cc(C2=C(c3cn(CCCSC(=N)N)c4ccccc34)C(=O)NC2=O)c2ccccc21 [Ro-318220]
cell survival ([6]; Ro-318220 added to Compound 3 plus SNP, n=7): 107.1±3.1%
effect on Compound 3-mediated anti-apoptotic action [6]: little influence

CCCC(=O)Nc1nc2c(ncn2C2OC3COP(=O)([O-])OC3C2OC(=O)CCC)c(=O)[nH]1.[Na+] (centres unmarked) [dibutyl-cGMP]
effect on SNP-induced apoptosis [6]: significantly reverse
